The supplement of paper PMC10307832

Experiments:
Test in all cases: relative viability (nuclei count vs DMSO), 5 days (fraction); higher = more cells survive
[1] = compound: COc1cc([C@@H]2c3cc4c(cc3[C@@H](O[C@@H]3O[C@@H]5CO[C@@H](C)O[C@H]5[C@H](O)[C@H]3O)[C@H]3COC(=O)[C@H]23)OCO4)cc(OC)c1O [Etoposide] + Nc1nc2[nH]cc(CCc3ccc(C(=O)N[C@@H](CCC(=O)O)C(=O)O)cc3)c2c(=O)[nH]1 [Pemetrexed] (partner 0.2 µM)
How it was run: (§1)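 Each reported value is a median over duplicate plates. It expresses relative viability: treated-well nuclei count divided by vehicle-well nuclei count. Lung cancer cell lines in 1536-well plates were dosed by pin tool a day after seeding, alone with one drug or with a fixed anchor-drug dose plus five library-drug doses (not always all listed) in √10 steps, and nuclei were counted after 5 days.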

[2] = compound: CC1=C(N=C(N=C1N)[C@H](CC(=O)N)NC[C@@H](C(=O)N)N)C(=O)N[C@@H]([C@H](C2=CN=CN2)OC3C(C(C(C(O3)CO)O)O)OC4C(C(C(C(O4)CO)O)OC(=O)N)O)C(=O)N[C@H](C)[C@H]([C@H](C)C(=O)N[C@@H]([C@@H](C)O)C(=O)NCCC5=NC(=CS5)C6=NC(=CS6)C(=O)NCCC[S+](C)C)O [Bleomycin] + Cc1nc(NC(=O)N2CCC[C@H]2C(N)=O)sc1-c1ccnc(C(C)(C)C(F)(F)F)c1 [Alpelisib] (partner 2 µM); details: main component drawn
How it was run: as §1

[3] = compound: COc1cc([C@@H]2c3cc4c(cc3[C@@H](O[C@@H]3O[C@@H]5CO[C@@H](C)O[C@H]5[C@H](O)[C@H]3O)[C@H]3COC(=O)[C@H]23)OCO4)cc(OC)c1O [Etoposide] + CS(=O)(=O)N1CCN(Cc2cc3nc(-c4cccc5[nH]ncc45)nc(N4CCOCC4)c3s2)CC1 [Pictilisib] (partner 1 µM)
How it was run: as §1

[4] = compound: CC1=C(N=C(N=C1N)[C@H](CC(=O)N)NC[C@@H](C(=O)N)N)C(=O)N[C@@H]([C@H](C2=CN=CN2)OC3C(C(C(C(O3)CO)O)O)OC4C(C(C(C(O4)CO)O)OC(=O)N)O)C(=O)N[C@H](C)[C@H]([C@H](C)C(=O)N[C@@H]([C@@H](C)O)C(=O)NCCC5=NC(=CS5)C6=NC(=CS6)C(=O)NCCC[S+](C)C)O [Bleomycin] + CC(=O)c1c(C)c2cnc(Nc3ccc(N4CCNCC4)cn3)nc2n(C2CCCC2)c1=O [Palbociclib] (partner 0.5 µM); details: main component drawn
How it was run: as §1

Cell Line	relative viability ([1]; first compound 0.01 µM)	relative viability ([1]; first compound 0.03162 µM)	relative viability ([1]; first compound 0.1 µM)	relative viability ([1]; first compound 0.3162 µM)	relative viability ([1]; first compound 1 µM)	relative viability ([2]; first compound 0.01 µM)	relative viability ([2]; first compound 0.03162 µM)	relative viability ([2]; first compound 0.1 µM)	relative viability ([2]; first compound 0.3162 µM)	relative viability ([2]; first compound 1 µM)	relative viability ([3]; first compound 0.01 µM)	relative viability ([3]; first compound 0.03162 µM)	relative viability ([3]; first compound 0.1 µM)	relative viability ([3]; first compound 0.3162 µM)	relative viability ([3]; first compound 1 µM)	relative viability ([4]; first compound 0.01 µM)	relative viability ([4]; first compound 0.03162 µM)	relative viability ([4]; first compound 0.1 µM)	relative viability ([4]; first compound 0.3162 µM)	relative viability ([4]; first compound 1 µM)
NCI-H1651	0.707	0.728	0.466	0.382	0.127	0.708	0.71	0.733	0.236	0.174	0.49	0.681	0.436	0.178	0.0908	0.488	0.454	0.464	0.288	0.252
NCI-H1755	0.468	0.467	0.519	0.41	0.428	0.939	0.93	0.906	0.658	0.58	0.434	0.473	0.316	0.426	0.269	0.433	0.435	0.457	0.408	0.428
HARA	0.235	0.309	0.25	0.261	0.232	0.682	0.784	0.818	0.415	0.373	0.3	0.545	0.255	0.449	0.086	0.219	0.291	0.252	0.188	0.197
NCI-H647	0.173	0.161	0.188	0.121	0.121	0.575	0.448	0.337	0.109	0.0917	0.418	0.394	0.257	0.208	0.0798	0.189	0.207	0.138	0.119	0.0651
NCI-H2347	0.454	0.487	0.401	0.386	0.383	0.892	1.05	0.997	0.51	0.478	0.921	0.757	0.309	0.285	0.392	0.43	0.479	0.459	0.359	0.338
LCLC-97TM1	0.176	0.196	0.168	0.18	0.118	0.162	0.186	0.134	0.127	0.101	–	0.172	0.115	0.116	0.109	0.154	0.211	0.157	0.112	0.101
EPLC-272H	0.344	0.327	0.318	0.315	0.308	0.889	0.847	0.797	0.308	0.176	0.345	0.371	0.281	0.278	0.233	0.329	0.311	0.311	0.213	0.218
NCI-H1915	0.504	0.516	0.484	0.474	0.459	0.896	0.888	0.68	0.325	0.167	0.934	1.14	0.634	0.782	0.481	0.419	0.389	0.332	0.173	0.131
NCI-H3122	0.21	0.207	0.206	0.19	0.179	0.737	0.709	0.778	0.378	0.349	0.687	0.74	0.387	0.576	0.349	0.198	0.186	0.18	0.132	0.148
NCI-H441	0.254	0.257	0.235	0.193	0.153	–	0.699	0.645	0.444	0.279	0.38	0.425	0.267	0.149	0.147	0.182	0.203	0.185	0.153	0.17
NCI-H2170	0.285	0.26	–	0.261	0.252	0.775	0.815	0.792	0.58	0.552	0.315	0.306	–	0.336	0.255	0.328	0.342	0.307	0.274	0.259
NCI-H1395	0.765	0.894	0.758	0.823	0.599	0.817	0.812	0.669	0.9	0.382	0.618	0.665	0.591	0.551	0.446	0.518	0.549	0.499	0.341	0.342
NCI-H358	0.179	0.186	0.178	0.168	0.157	0.889	0.799	0.712	0.481	0.349	0.382	0.336	0.259	0.23	0.16	0.142	0.178	0.115	0.133	0.111
PC-14	0.13	0.141	0.168	0.121	0.106	0.626	0.534	0.303	0.0745	0.067	0.598	0.638	0.543	0.371	0.289	0.193	0.174	0.127	0.0449	0.0437
CAL-12T	1.02	1.29	1.07	0.963	0.484	0.666	0.883	0.433	0.235	0.244	0.508	0.438	0.323	0.391	0.258	0.309	0.365	0.232	0.116	0.192
